Structures are written as SMILES.

The target in experiment [1] is T1, glutathione S-transferase (GST)-fused full-length human Syk protein (Homo sapiens, UniProt P43405).
T1 construct: (GST)-fused full-length human Syk protein; GST (glutathione S-transferase); purchased Carna Biosciences
In words: Syk enzyme assay. It counts as biochemical. The note with it: Syk enzyme assay, Test Example 1; read-out: IC50 of Syk-inhibitory activity. A digest of the protocol:
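IC50 values come from a time-resolved FRET readout (615 and 665 nm) of substrate phosphorylation, measured after an EDTA stop and 1 h antibody binding. The kinase reaction ran 40 min at room temperature with 27 μM ATP and 0.4 μM biotin-peptide, following a 15 min compound preincubation with baculovirus-made GST-full-length human Syk.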

The test system of experiment [2] is THP-1 cells. Description: TNFα generation assay. Type of experiment: cell-based, human. The note with it: Homo sapiens, THP-1, THP-1 cells; Table 22; read-out: IC50 in TNFα generation assay. In outline:
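THP-1 cells differentiated to macrophage-like cells with 10 ng/ml IFN-γ for 2 days, preincubated with compound 30 min at room temperature, then cultured 7 h on plates coated with human IgG (10 μg/ml). Secreted TNFα measured by ELISA or AlphaLISA.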

For the molecule `NC(=O)c1cc(F)c(N[C@@H]2CCCC[C@@H]2N)nc1Nc1ccnc2c1ccn2CCN1CCCCC1` [Example 004-029], the IC50 in experiment [1] was < 10 nM; in experiment [2], 130 to 200 nM.
On the same counts, the results for `NC(=O)c1cc(F)c(N[C@@H]2CCCC[C@@H]2N)nc1Nc1cncc2cccnc12` [Example 004-004] are 10 to 50 nM and 65 to 130 nM.
For `CCC[C@H](CN)Nc1nc(Nc2ccc3ncccc3c2)c(C(N)=O)cc1F` [Example 006-161, (R)-6-((1-aminopentan-2-yl)amino)-5-fluoro-2-(quinolin-6-ylamino)nicotinamide], in that order: < 10 nM and < 65 nM.
As for `NC(=O)c1cc(F)c(N[C@@H]2CCCC[C@@H]2N)nc1Nc1cncc(-n2cccc2)c1` (relative stereo) [Example 006-123, 2-((5-(1H-pyrrol-1-yl)pyridin-3-yl)amino)-6-(cis-2-aminocyclohexylamino)-5-fluoronicotinamide], the IC50 in experiment [1] is < 10 nM; in experiment [2], 130 to 200 nM.
Take `CCCC[C@@H](Nc1nc(Nc2ccnc(OCCOC)c2)c(C(N)=O)cc1F)[C@H](C)N` [Example 006-407, 6-(((2S,3R)-2-aminoheptan-3-yl)amino)-5-fluoro-2-((2-(2-methoxyethoxy)pyridin-4-yl)amino)nicotinamide]: the IC50 in experiment [1] is < 10 nM; in experiment [2], 130 to 200 nM.
On the same counts, the results for `CCC[C@@H](Nc1nc(Nc2cncc(-c3ccc(OC)cc3)c2)c(C(N)=O)cc1F)[C@H](C)N` [Example 006-285, 6-(((2S,3R)-2-aminohexan-3-yl)amino)-5-fluoro-2-((5-(4-methoxyphenyl)pyridin-3-yl)amino)nicotinamide] are < 10 nM and 65 to 130 nM.
On the same counts, the results for `CCc1nn(CC)c2ccc(Nc3nc(N[C@H](C4CC4)[C@H](C)N)c(F)cc3C(N)=O)cc12` [Example 006-579, 6-(((1R,2S)-2-amino-1-cyclopropylpropyl)amino)-2-((1,3-diethyl-1H-indazol-5-yl)amino)-5-fluoronicotinamide] are < 10 nM and 65 to 130 nM.
On the same counts, the results for `CNc1cccc(-c2cncc(Nc3nc(N[C@@H]4CCCC[C@@H]4N)c(F)cc3C(N)=O)c2)c1` (relative stereo) [Example 004-219, 6-(cis-2-aminocyclohexylamino)-5-fluoro-2-((5-(3-(methylamino)phenyl)pyridin-3-yl)amino)nicotinamide] are < 10 nM and 65 to 130 nM.
Regarding `CCc1nn(C)c2ccc(Nc3nc(N[C@H](CC)[C@H](C)N)c(F)cc3C(N)=O)cc12` [Example 006-539, 6-(((2S,3R)-2-aminopentan-3-yl)amino)-2-((3-ethyl-1-methyl-1H-indazol-5-yl)amino)-5-fluoronicotinamide], the IC50 in experiment [1] is < 10 nM; in experiment [2] it was 130 to 200 nM.
For `NC(=O)c1cc(F)c(N[C@@H]2CCCC[C@@H]2N)nc1Nc1ccc2c(cnn2C2CC2)c1` [Example 006-472, 6-(((1R,2S)-2-aminocyclohexyl)amino)-2-((1-cyclopropyl-1H-indazol-5-yl)amino)-5-fluoronicotinamide], in that order: < 10 nM and 65 to 130 nM.
Turning to `COc1ccccc1-c1cncc(Nc2nc(N[C@@H]3CCCC[C@@H]3N)c(F)cc2C(N)=O)c1` (relative stereo) [Example 004-149, 6-(cis-2-aminocyclohexylamino)-5-fluoro-2-((5-(2-methoxyphenyl)pyridin-3-yl)amino)-nicotinamide], the IC50 in experiment [1] was < 10 nM; in experiment [2] it was 130 to 200 nM.
For `CC(C)C[C@H](CN)Nc1nc(Nc2ccnc(-n3cncn3)c2)c(C(N)=O)cc1F` [Example 006-153, (R)-2-((2-(1H-1,2,4-triazol-1-yl)pyridin-4-yl)amino)-6-((1-amino-4-methylpentan-2-yl)amino)-5-fluoronicotinamide], in that order: < 10 nM and < 65 nM.

Values taken from patent US8895585B2, “Nicotinamide derivative or salt thereof” (FUJIFILM Corporation, priority 2010, dated 2014).
